Experimental data from US6737383B1, “Herbicidal oxadiazolidines” (priority 1999, dated 2004).

Key:
[1] = tested on: corn; assay: Test B pre/postemergence corn; assay type: in vivo, Zea mays
Outline: (§1)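 Test chemicals in a non-phytotoxic solvent mixture with surfactant were sprayed preemergence onto planted seeds and postemergence onto plants 2 to 18 cm tall (1- to 4-leaf stage). After twelve to sixteen days in a greenhouse, injury was visually rated against untreated controls from 0 (no effect) to 10 (complete control).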

[2] = tested on: wheat; assay: Test B pre/postemergence wheat; assay type: in vivo, Triticum aestivum; conditions: for Plant response rating, Wheat: scale of 0 to 10 where 0 is no effect and 10 is complete control
Outline: as §1

[3] = tested on: blackgrass; assay: Test B pre/postemergence blackgrass; assay type: in vivo, Alopecurus myosuroides
Outline: as §1

[4] = tested on: crabgrass; assay: Test B pre/postemergence crabgrass; assay type: in vivo, Digitaria sanguinalis
Outline: as §1

[5] = tested on: rape; assay: Test B pre/postemergence rape; assay type: in vivo, Brassica napus; conditions: for Plant response rating, Rape: scale of 0 to 10 where 0 is no effect and 10 is complete control
Outline: as §1

[6] = tested on: cocklebur; assay: Test B pre/postemergence cocklebur; assay type: in vivo, Xanthium strumarium
Outline: as §1

[7] = tested on: surinam grass; assay: Test B pre/postemergence surinam grass; assay type: in vivo, Brachiaria decumbens
Outline: as §1

[8] = tested on: wild oat; assay: Test B pre/postemergence wild oat; assay type: in vivo, Avena fatua; conditions: for Plant response rating, Wild oats: scale of 0 to 10 where 0 is no effect and 10 is complete control
Outline: as §1

[9] = tested on: smallflower flatsedge; assay: Test B flood test smallflower flatsedge; assay type: in vivo, Cyperus difformis
Outline: (§2)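 Each value is a visual injury score relative to controls, with 10 meaning complete control and 0 no effect. Evaluation took place twelve to sixteen days after the 2-leaf-stage plants were treated and kept in the greenhouse.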

[10] = tested on: purple nutsedge; assay: Test B pre/postemergence purple nutsedge; assay type: in vivo, Cyperus rotundus; conditions: for Plant response rating, Nutsedge: scale of 0 to 10 where 0 is no effect and 10 is complete control
Outline: as §1

[11] = tested on: rice; assay: Test B flood test rice; assay type: in vivo, Oryza sativa
Outline: as §2

[12] = tested on: bamyardgrass; assay: Test B flood test barnyardgrass; assay type: in vivo, Echinochloa crus-galli
Outline: as §2

[13] = tested on: pigweed; assay: Test B pre/postemergence pigweed; assay type: in vivo, Amaranthus retroflexus; conditions: for Plant response rating, Redroot pigweed: scale of 0 to 10 where 0 is no effect and 10 is complete control
Outline: as §1

[14] = tested on: giant foxtail; assay: Test B pre/postemergence giant foxtail; assay type: in vivo, Setaria faberii
Outline: as §1

[15] = tested on: velvetleaf; assay: Test B pre/postemergence velvetleaf; assay type: in vivo, Abutilon theophrasti; conditions: for Plant response rating, Velvetleaf: scale of 0 to 10 where 0 is no effect and 10 is complete control
Outline: as §1

[16] = tested on: duck salad; assay: Test B flood test duck salad; assay type: in vivo, Heteranthera limosa
Outline: as §2

[17] = tested on: sugar beet; assay: Test B pre/postemergence sugar beet; assay type: in vivo, Beta vulgaris; conditions: for Plant response rating, Sugarbeets: scale of 0 to 10 where 0 is no effect and 10 is complete control
Outline: as §1

[18] = tested on: soybean; assay: Test B pre/postemergence soybean; assay type: in vivo, Glycine max; conditions: for Plant response rating, Soybean: scale of 0 to 10 where 0 is no effect and 10 is complete control
Outline: as §1

[19] = tested on: morningglory; assay: Test B pre/postemergence morningglory; assay type: in vivo, Ipomoea hederacea; conditions: for Plant response rating, Morningglory: scale of 0 to 10 where 0 is no effect and 10 is complete control
Outline: as §1

[20] = Postemergence, Rate 250 g/ha, scale 0 to 10
[21] = Postemergence, Rate 500 g/ha, scale of 0 to 10 where 0 is no effect and 10 is complete control
[22] = Preemergence, Rate 62 g/ha, scale of 0 to 10 where 0 is no effect and 10 is complete control
[23] = Preemergence, Rate 125 g/ha, scale of 0 to 10 where 0 is no effect and 10 is complete control
[24] = Preemergence, Rate 250 g/ha, scale 0 to 10, 0 is no effect, 10 is complete control
[25] = Preemergence, Rate 500 g/ha, scale 0 to 10, 0 is no effect, 10 is complete control
[26] = Rate 62 g/ha, Postemergence, scale 0 to 10 (0 no effect, 10 complete control)
[27] = Rate 125 g/ha, Postemergence, scale 0 to 10, 0 is no effect, 10 is complete control
[28] = Rate 62 g/ha, flood test species, Pre-emergence, visual evaluation after twelve to sixteen days
[29] = Rate 125 g/ha, under heading Pre-emergence, flood test species, visual evaluation after twelve to sixteen days
[30] = Rate 250 g/ha, Pre-emergence (flood test species), scale 0 to 10, 0 is no effect, 10 is complete control
[31] = Rate 500 g/ha, Pre-emergence, flood test species, scale 0 to 10 (0 no effect, 10 complete control)

COC(=O)C(C)n1c(=O)on(C(=O)N(c2ccc(F)cc2F)C(C)C)c1=O (stereo not shown) [Compound 463]
Corn plant response rating [1, 20]: 0
Corn plant response rating [1, 21]: 0
Plant response rating, Corn [1, 22]: 0
Plant response rating, Corn [1, 23]: 0
Corn plant response rating [1, 24]: 0
Corn plant response rating [1, 25]: 0
Corn plant response rating [1, 26]: 0
Corn plant response rating [1, 27]: 0
Wheat plant response rating [2, 20]: 0
Plant response rating, Wheat ([2]; Preemergence, Rate 62 g/ha): 0
Plant response rating, Wheat ([2]; Preemergence, Rate 125 g/ha): 0
Wheat plant response rating [2, 24]: 0
Wheat plant response rating [2, 25]: 0
Wheat plant response rating [2, 26]: 0
Wheat plant response rating [2, 27]: 0
Blackgrass plant response rating [3, 20]: 0
Blackgrass plant response rating [3, 21]: 2
Plant response rating, Blackgrass [3, 22]: 0
Plant response rating, Blackgrass [3, 23]: 0
Blackgrass plant response rating [3, 24]: 2
Blackgrass plant response rating [3, 25]: 4
Blackgrass plant response rating [3, 26]: 0
Blackgrass plant response rating [3, 27]: 0
Crabgrass plant response rating [4, 20]: 2
Crabgrass plant response rating [4, 21]: 2
Plant response rating, Crabgrass [4, 22]: 0
Plant response rating, Crabgrass [4, 23]: 0
Crabgrass plant response rating [4, 24]: 2
Crabgrass plant response rating [4, 25]: 2
Crabgrass plant response rating [4, 26]: 0
Crabgrass plant response rating [4, 27]: 0
Rape plant response rating [5, 20]: 0
Plant response rating, Rape ([5]; Preemergence, Rate 62 g/ha): 0
Plant response rating, Rape ([5]; Preemergence, Rate 125 g/ha): 0
Rape plant response rating [5, 24]: 0
Rape plant response rating [5, 25]: 0
Rape plant response rating [5, 26]: 0
Rape plant response rating [5, 27]: 0
Cocklebur plant response rating [6, 20]: 0
Cocklebur plant response rating [6, 21]: 2
Plant response rating, Cocklebur [6, 22]: 0
Plant response rating, Cocklebur [6, 23]: 0
Cocklebur plant response rating [6, 24]: 0
Cocklebur plant response rating [6, 25]: 0
Cocklebur plant response rating [6, 26]: 0
Cocklebur plant response rating [6, 27]: 0
B. signalgrass plant response rating ([7]; Postemergence, Rate 250 g/ha, scale 0 to 10, 0 no effect, 10 complete control): 0
B. signalgrass plant response rating [7, 21]: 0
Plant response rating, B. signalgrass [7, 22]: 0
Plant response rating, B. signalgrass [7, 23]: 0
B. signalgrass plant response rating [7, 24]: 0
B. signalgrass plant response rating [7, 25]: 2
B. signalgrass plant response rating [7, 26]: 0
B. signalgrass plant response rating [7, 27]: 0
Wild oats plant response rating [8, 20]: 0
Plant response rating, Wild oats ([8]; Preemergence, Rate 62 g/ha): 0
Plant response rating, Wild oats ([8]; Preemergence, Rate 125 g/ha): 0
Wild oats plant response rating [8, 24]: 0
Wild oats plant response rating [8, 25]: 0
Wild oats plant response rating [8, 26]: 0
Wild oats plant response rating [8, 27]: 0
Plant response rating, S. Flatsedge (0 to 10 scale, 0 is no effect, 10 is complete control) [9, 28]: 0
S. Flatsedge plant response rating (0 to 10 scale, 0 is no effect, 10 is complete control) [9, 29]: 0
S. Flatsedge plant response rating [9, 30]: 0
S. Flatsedge plant response rating [9, 31]: 0
Nutsedge plant response rating [10, 20]: 0
Plant response rating, Nutsedge ([10]; Preemergence, Rate 62 g/ha): 0
Plant response rating, Nutsedge ([10]; Preemergence, Rate 125 g/ha): 0
Nutsedge plant response rating [10, 24]: 0
Nutsedge plant response rating [10, 25]: 0
Nutsedge plant response rating [10, 26]: 0
Nutsedge plant response rating [10, 27]: 0
Plant response rating, Rice (0 to 10 scale, 0 is no effect, 10 is complete control) [11, 28]: 0
Rice plant response rating (0 to 10 scale, 0 is no effect, 10 is complete control) [11, 29]: 0
Rice plant response rating [11, 30]: 0
Rice plant response rating [11, 31]: 0
Plant response rating, Barnyardgrass (0 to 10 scale, 0 is no effect, 10 is complete control) [12, 28]: 0
Barnyardgrass plant response rating (0 to 10 scale, 0 is no effect, 10 is complete control) [12, 29]: 0
Barnyardgrass plant response rating [12, 30]: 0
Barnyardgrass plant response rating [12, 31]: 0
Redroot pigweed plant response rating [13, 20]: 0
Plant response rating, Redroot pigweed ([13]; Preemergence, Rate 62 g/ha): 2
Plant response rating, Redroot pigweed ([13]; Preemergence, Rate 125 g/ha): 5
Redroot pigweed plant response rating [13, 24]: 10
Redroot pigweed plant response rating [13, 25]: 10
Redroot pigweed plant response rating [13, 26]: 0
Redroot pigweed plant response rating [13, 27]: 0
Giant foxtail plant response rating [14, 20]: 6
Giant foxtail plant response rating [14, 21]: 6
Plant response rating, Giant foxtail [14, 22]: 0
Plant response rating, Giant foxtail [14, 23]: 0
Giant foxtail plant response rating [14, 24]: 3
Giant foxtail plant response rating [14, 25]: 10
Giant foxtail plant response rating [14, 26]: 0
Giant foxtail plant response rating [14, 27]: 0
Velvetleaf plant response rating [15, 20]: 0
Plant response rating, Velvetleaf ([15]; Preemergence, Rate 62 g/ha): 0
Plant response rating, Velvetleaf ([15]; Preemergence, Rate 125 g/ha): 0
Velvetleaf plant response rating [15, 24]: 0
Velvetleaf plant response rating [15, 25]: 2
Velvetleaf plant response rating [15, 26]: 0
Velvetleaf plant response rating [15, 27]: 0
Plant response rating, Ducksalad (0 to 10 scale, 0 is no effect, 10 is complete control) [16, 28]: 0
Ducksalad plant response rating (0 to 10 scale, 0 is no effect, 10 is complete control) [16, 29]: 0
Ducksalad plant response rating [16, 30]: 0
Ducksalad plant response rating [16, 31]: 0
Sugarbeets plant response rating [17, 20]: 0
Plant response rating, Sugarbeets ([17]; Preemergence, Rate 62 g/ha): 0
Plant response rating, Sugarbeets ([17]; Preemergence, Rate 125 g/ha): 0
Sugarbeets plant response rating [17, 24]: 0
Sugarbeets plant response rating [17, 25]: 0
Sugarbeets plant response rating [17, 26]: 0
Sugarbeets plant response rating [17, 27]: 0
Soybean plant response rating [18, 20]: 1
Plant response rating, Soybean ([18]; Preemergence, Rate 62 g/ha): 0
Plant response rating, Soybean ([18]; Preemergence, Rate 125 g/ha): 0
Soybean plant response rating [18, 24]: 0
Soybean plant response rating [18, 25]: 0
Soybean plant response rating [18, 26]: 1
Soybean plant response rating [18, 27]: 1
Morningglory plant response rating [19, 20]: 2
Plant response rating, Morningglory ([19]; Preemergence, Rate 62 g/ha): 0
Plant response rating, Morningglory ([19]; Preemergence, Rate 125 g/ha): 0
Morningglory plant response rating [19, 24]: 0
Morningglory plant response rating [19, 25]: 0
Morningglory plant response rating [19, 26]: 0
Morningglory plant response rating [19, 27]: 0
